test: in vitro; conditions: human, hek293t cells

Compound	viability at 48 h, 25 µM
C=CC(=O)N(C[C@H]1CCCO1)C1CCC(CC)CC1 (stereo partly drawn) [1-D03, N-(4-ethylcyclohexyl)-N-{[(2R)-oxolan-2-yl]methyl}prop-2-enamide]	94.6%
C=CC(=O)N(Cc1cccc2ccoc12)C1CCSCC1 [1-D04, N-[(1-benzofuran-7-yl)methyl]-N-(thian-4-yl)prop-2-enamide]	70.4%
C=CC(=O)NC1CCOc2c(F)cccc21 (centres unmarked) [1-D05, N-(8-fluoro-3,4-dihydro-2H-1-benzopyran-4-yl)prop-2-enamide]	99.1%
C=CC(=O)NC1COCC1C (centres unmarked) [1-D06, N-(4-methyloxolan-3-yl)prop-2-enamide]	77.2%
C=CC(=O)N1CCCC(c2nn(C)cc2C(N)=O)C1 (centres unmarked) [1-D07, 1-methyl-3-[1-(prop-2-enoyl)piperidin-3-yl]-1H-pyrazole-4-carboxamide]	107%
C=CC(=O)Nc1nc(-c2cccs2)cs1 [1-D08, N-[4-(thiophen-2-yl)-1,3-thiazol-2-yl]prop-2-enamide]	1.21%
C=CC(=O)N1CCCC(n2ccnn2)C1 (centres unmarked) [1-D09, 1-[3-(1H-1,2,3-triazol-1-yl)piperidin-1-yl]prop-2-en-1-one]	93.6%
C=CC(=O)NC1CC(C2CCCCC2)C1 (centres unmarked) [1-D10, N-(3-cyclohexylcyclobutyl)prop-2-enamide]	75.7%
C=CC(=O)N(Cc1ccc(F)cn1)c1cnn(C2CCCC2)c1C [1-D11, N-(1-cyclopentyl-5-methyl-1H-pyrazol-4-yl)-N-[(5-fluoropyridin-2-yl)methyl]prop-2-enamide]	97.3%
C=CC(=O)Nc1ccc(N2CCN(CC)CC2)cc1 [1-D12, N-[4-(4-ethylpiperazin-1-yl)phenyl]prop-2-enamide]	77.2%
C=CC(=O)NCCc1csc(C)n1 [1-D13, N-[2-(2-methyl-1,3-thiazol-4-yl)ethyl]prop-2-enamide]	106%
C=CC(=O)N1CCC(F)CC1 [1-D14, 1-(4-fluoropiperidin-1-yl)prop-2-en-1-one]	69.9%
C=CC(=O)N(Cc1cnc(C2CC2)o1)C1CCCCC1C (centres unmarked) [1-D15, N-[(2-cyclopropyl-1,3-oxazol-5-yl)methyl]-N-(2-methylcyclohexyl)prop-2-enamide]	118%
C=CC(=O)NCC(=O)c1scc(C)c1Cl [1-D16, N-[2-(3-chloro-4-methylthiophen-2-yl)-2-oxoethyl]prop-2-enamide]	65.2%
C=CC(=O)NCC1CCCCN1S(C)(=O)=O (centres unmarked) [1-D17, N-[(1-methanesulfonylpiperidin-2-yl)methyl]prop-2-enamide]	161%
C=CC(=O)N1CCn2c(nnc2C(F)(F)F)C1 [1-D18, 1-[3-(trifluoromethyl)-5H,6H,7H,8H-[1,2,4]triazolo[4,3-a]pyrazin-7-yl]prop-2-en-1-one]	66.6%
C=CC(=O)N1CCC(S(=O)(=O)NC(C)C)C1 (centres unmarked) [1-D19, 1-(prop-2-enoyl)-N-(propan-2-yl)pyrrolidine-3-sulfonamide]	218%
C=CC(=O)Nc1ccc(-c2nc3cc(C)ccc3o2)cc1 [1-D20, N-[4-(5-methyl-1,3-benzoxazol-2-yl)phenyl]prop-2-enamide]	1.53%
C=CC(=O)Nc1ccc(CN2CCC(C)CC2)cc1 [1-D21, N-{4-[(4-methylpiperidin-1-yl)methyl]phenyl}prop-2-enamide]	157%
C=CC(=O)N1CC2(CCOCC2)C1c1ccco1 (centres unmarked) [1-D22, 1-[1-(furan-2-yl)-7-oxa-2-azaspiro[3.5]nonan-2-yl]prop-2-en-1-one]	72.1%
C=CC(=O)N(C)C1CS(=O)(=O)C1 [1-E03, N-(1,1-dioxo-1lambda6-thietan-3-yl)-N-methylprop-2-enamide]	86.3%

Compound	viability at 48 h, 25 µM
C=CC(=O)Nc1cc(C(C)(C)C)nn1-c1ncccn1 [1-E04, N-[3-tert-butyl-1-(pyrimidin-2-yl)-1H-pyrazol-5-yl]prop-2-enamide]	88.8%
C=CC(=O)Nc1cnn(CCF)c1 [1-E05, N-[1-(2-fluoroethyl)-1H-pyrazol-4-yl]prop-2-enamide]	78.3%
C=CC(=O)N1CCC(C(=O)Nc2cc(Cl)ccc2SCC)CC1 [1-E06, N-[5-chloro-2-(ethylsulfanyl)phenyl]-1-(prop-2-enoyl)piperidine-4-carboxamide]	111%
C=CC(=O)NCc1cccc2c1OCO2 [1-E07, N-[(1,3-dioxaindan-4-yl)methyl]prop-2-enamide]	69.1%
C=CC(=O)NC1C(=O)OCC1(C)C (centres unmarked) [1-E08, N-(4,4-dimethyl-2-oxooxolan-3-yl)prop-2-enamide]	83.7%
C=CC(=O)N1CCC(C(=O)N2CCc3ccccc32)CC1 [1-E09, 1-[4-(2,3-dihydro-1H-indole-1-carbonyl)piperidin-1-yl]prop-2-en-1-one]	68%
C=CC(=O)NC1CCC(F)(F)CC1F (centres unmarked) [1-E11, N-(2,4,4-trifluorocyclohexyl)prop-2-enamide]	69.4%
C=CC(=O)NC12CC3CC(CC(C3)C1)C2 [1-E12, N-(adamantan-1-yl)prop-2-enamide]	56.7%
C=CC(=O)Nc1c(C)cccc1SCC(=O)N(C)C [1-E13, N-(2-{[(dimethylcarbamoyl)methyl]sulfanyl}-6-methylphenyl)prop-2-enamide]	78.8%
C=CC(=O)N1CCC(C(=O)NCc2ccoc2C)CC1 [1-E14, N-[(2-methylfuran-3-yl)methyl]-1-(prop-2-enoyl)piperidine-4-carboxamide]	85.4%
C=CC(=O)N1CCC(O)(c2ccccc2)CC1 [1-E15, 1-(4-hydroxy-4-phenylpiperidin-1-yl)prop-2-en-1-one]	79.8%
C=CC(=O)Nc1cc(Cl)cc(C)c1OC [1-E16, N-(5-chloro-2-methoxy-3-methylphenyl)prop-2-enamide]	45.9%
C=CC(=O)NCc1c(C(F)(F)F)coc1C [1-E17, N-{[2-methyl-4-(trifluoromethyl)furan-3-yl]methyl}prop-2-enamide]	84.9%
C=CC(=O)Nc1ccc(C(N)=O)nc1OC [1-E18, 6-methoxy-5-(prop-2-enamido)pyridine-2-carboxamide]	69.6%
C=CC(=O)Nc1ccc2cc(N(C)C)ccc2c1 [1-E19, N-[6-(dimethylamino)naphthalen-2-yl]prop-2-enamide]	46.5%
C=CC(=O)N1CCC(C(=O)NCc2ccc(Cl)cc2Cl)CC1 [1-E20, N-[(2,4-dichlorophenyl)methyl]-1-(prop-2-enoyl)piperidine-4-carboxamide]	95.8%
C=CC(=O)NCC(C)(C)C1CCCCC1 [1-E21, N-(2-cyclohexyl-2-methylpropyl)prop-2-enamide]	75.5%
C=CC(=O)Nc1cnn(-c2ccccc2C)c1C(F)F [1-E22, N-[5-(difluoromethyl)-1-(2-methylphenyl)-1H-pyrazol-4-yl]prop-2-enamide]	116%
C=CC(=O)N1CCN(CC(=O)NC)CC1 [1-F03, N-methyl-2-[4-(prop-2-enoyl)piperazin-1-yl]acetamide]	158%
C=CC(=O)N(Cc1cccc(Cl)c1F)C(C)C1CCOCC1 (centres unmarked) [1-F04, N-[(3-chloro-2-fluorophenyl)methyl]-N-[1-(oxan-4-yl)ethyl]prop-2-enamide]	58.7%

Source: publication PMC11995724, “Antibiotic target discovery by integrated phenotypic and activity-based profiling of electrophilic fragments” (Cell chemical biology, 2025)
